Data: PubChem BioAssay AID2060617 (Molecular Pharmacology Branch, DTP, NCI, 2025)

Test system: 485368-065-R4-J2-PDC spheroids with HUVEC/MSC, viability
Experiment: Anticancer human tumor 485368-065-R4-J2-PDC patient-derived pancreatic carcinoma cell line growth inhibition [CLK]
Details: for IC50: curve of first compound; for viability, T/C: stronger effect = lower value
In short: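 Patient-derived tumor cells grown as complex spheroids with HUVEC endothelial cells and mesenchymal stem cells, treated with drug combinations. Concentrations descend in half-log steps from near clinical Cmax, or from 10 microM if Cmax unknown.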

[1] = second compound 0.0316 µM, first compound 0.0316 µM
[2] = second compound 0.0316 µM, first compound 0.1 µM
[3] = second compound 0.0316 µM, first compound 0.316 µM
[4] = second compound 0.0316 µM, first compound 1 µM
[5] = second compound 0.1 µM, first compound 0.0316 µM
[6] = second compound 0.1 µM, first compound 0.1 µM
[7] = second compound 0.1 µM, first compound 0.316 µM
[8] = second compound 0.1 µM, first compound 1 µM
[9] = second compound 0.316 µM, first compound 0.0316 µM
[10] = second compound 0.316 µM, first compound 0.1 µM
[11] = second compound 0.316 µM, first compound 0.316 µM
[12] = second compound 0.316 µM, first compound 1 µM
[13] = second compound 1 µM, first compound 0.0316 µM
[14] = second compound 1 µM, first compound 0.1 µM
[15] = second compound 1 µM, first compound 0.316 µM
[16] = second compound 1 µM, first compound 1 µM
[17] = second compound 3.16 µM, first compound 0.0316 µM
[18] = second compound 3.16 µM, first compound 0.1 µM
[19] = second compound 3.16 µM, first compound 0.316 µM
[20] = second compound 3.16 µM, first compound 1 µM
[21] = second compound 10 µM, first compound 0.0316 µM
[22] = second compound 10 µM, first compound 0.1 µM
[23] = second compound 10 µM, first compound 0.316 µM
[24] = second compound 10 µM, first compound 1 µM
[25] = second compound 0.0316 µM, first compound 0.00316 µM
[26] = second compound 0.0316 µM, first compound 0.01 µM
[27] = second compound 0.1 µM, first compound 0.00316 µM
[28] = second compound 0.1 µM, first compound 0.01 µM
[29] = second compound 0.316 µM, first compound 0.00316 µM
[30] = second compound 0.316 µM, first compound 0.01 µM
[31] = second compound 1 µM, first compound 0.00316 µM
[32] = second compound 1 µM, first compound 0.01 µM
[33] = second compound 3.16 µM, first compound 0.00316 µM
[34] = second compound 3.16 µM, first compound 0.01 µM
[35] = second compound 10 µM, first compound 0.00316 µM
[36] = second compound 10 µM, first compound 0.01 µM
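Further: spheroids exposed to compounds for seven days.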
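Wherever viability, T/C is given: 100% = DMSO vehicle control wells.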

CC(Nc1ccc2c(c1)OCCn1cc(N3C(=O)OCC3C(F)F)nc1-2)C(N)=O (stereo unspecified) + CNC(=O)c1ccc(Nc2nc(OC3CCCC3)c3c(-c4ccc5nc(C)oc5c4)c[nH]c3n2)c(OC)c1
IC50 (second compound 0.0316 µM): > 10000 nM | IC50 (second compound 0.1 µM): > 10000 nM | IC50 (second compound 0.316 µM): > 10000 nM | IC50 (second compound 1 µM): 2510 nM | IC50 (second compound 3.16 µM): 368 nM | IC50 (second compound 10 µM): 400 nM | viability, T/C [1]: 93.5% | viability, T/C [2]: 119% | viability, T/C [3]: 105% | viability, T/C [4]: 97.2% | viability, T/C (second compound 0.0316 µM, first compound 3.16 µM): 90.4% | viability, T/C (second compound 0.0316 µM, first compound 10 µM): 79.3% | viability, T/C [5]: 92.3% | viability, T/C [6]: 116% | viability, T/C [7]: 102% | viability, T/C [8]: 89.8% | viability, T/C (second compound 0.1 µM, first compound 3.16 µM): 75.2% | viability, T/C (second compound 0.1 µM, first compound 10 µM): 67.5% | viability, T/C [9]: 76.8% | viability, T/C [10]: 82.1% | viability, T/C [11]: 71.1% | viability, T/C [12]: 63.8% | viability, T/C (second compound 0.316 µM, first compound 3.16 µM): 63.3% | viability, T/C (second compound 0.316 µM, first compound 10 µM): 54.1% | viability, T/C [13]: 81.8% | viability, T/C [14]: 64.8% | viability, T/C [15]: 63.2% | viability, T/C [16]: 57.8% | viability, T/C (second compound 1 µM, first compound 3.16 µM): 47.5% | viability, T/C (second compound 1 µM, first compound 10 µM): 43.7% | viability, T/C [17]: 68.2% | viability, T/C [18]: 59% | viability, T/C [19]: 50% | viability, T/C [20]: 45.8% | viability, T/C (second compound 3.16 µM, first compound 3.16 µM): 38.7% | viability, T/C (second compound 3.16 µM, first compound 10 µM): 36.6% | viability, T/C [21]: 61% | viability, T/C [22]: 56.6% | viability, T/C [23]: 50.1% | viability, T/C [24]: 45.5% | viability, T/C (second compound 10 µM, first compound 3.16 µM): 41.5% | viability, T/C (second compound 10 µM, first compound 10 µM): 33.8%

CCN1CCN(Cc2ccc(Nc3ncc(F)c(-c4cc(F)c5nc(C)n(C(C)C)c5c4)n3)nc2)CC1 + CNC(=O)c1ccc(Nc2nc(OC3CCCC3)c3c(-c4ccc5nc(C)oc5c4)c[nH]c3n2)c(OC)c1
IC50 (second compound 0.0316 µM): > 1000 nM | IC50 (second compound 0.1 µM): > 1000 nM | IC50 (second compound 0.316 µM): > 1000 nM | IC50 (second compound 1 µM): > 1000 nM | IC50 (second compound 3.16 µM): > 1000 nM | IC50 (second compound 10 µM): > 1000 nM | viability, T/C [25]: 95.9% | viability, T/C [26]: 106% | viability, T/C [1]: 103% | viability, T/C [2]: 135% | viability, T/C [3]: 134% | viability, T/C [4]: 117% | viability, T/C [27]: 89.4% | viability, T/C [28]: 92% | viability, T/C [5]: 93% | viability, T/C [6]: 95.1% | viability, T/C [7]: 109% | viability, T/C [8]: 100% | viability, T/C [29]: 81.5% | viability, T/C [30]: 81% | viability, T/C [9]: 75.2% | viability, T/C [10]: 66.5% | viability, T/C [11]: 84.5% | viability, T/C [12]: 72.9% | viability, T/C [31]: 71.8% | viability, T/C [32]: 77.3% | viability, T/C [13]: 82.8% | viability, T/C [14]: 75.7% | viability, T/C [15]: 75.4% | viability, T/C [16]: 73.2% | viability, T/C [33]: 72.7% | viability, T/C [34]: 71.7% | viability, T/C [17]: 67.1% | viability, T/C [18]: 63.1% | viability, T/C [19]: 60.2% | viability, T/C [20]: 63.2% | viability, T/C [35]: 72.1% | viability, T/C [36]: 65.1% | viability, T/C [21]: 66% | viability, T/C [22]: 60.7% | viability, T/C [23]: 60.4% | viability, T/C [24]: 56.3%

COc1c(OCCCN2CCOCC2)ccc2c3n(c(=NC(=O)c4cnc(N)nc4)nc12)CCN3 + CNC(=O)c1ccc(Nc2nc(OC3CCCC3)c3c(-c4ccc5nc(C)oc5c4)c[nH]c3n2)c(OC)c1
IC50 (second compound 0.0316 µM): 220 nM | IC50 (second compound 0.1 µM): 243 nM | IC50 (second compound 0.316 µM): 136 nM | IC50 (second compound 1 µM): 54.9 nM | IC50 (second compound 3.16 µM): 42.6 nM | IC50 (second compound 10 µM): 35.3 nM | viability, T/C [25]: 81.5% | viability, T/C [26]: 124% | viability, T/C [1]: 111% | viability, T/C [2]: 66.1% | viability, T/C [3]: 44.5% | viability, T/C [4]: 40.5% | viability, T/C [27]: 103% | viability, T/C [28]: 121% | viability, T/C [5]: 110% | viability, T/C [6]: 68.4% | viability, T/C [7]: 48% | viability, T/C [8]: 39.9% | viability, T/C [29]: 72.4% | viability, T/C [30]: 80.8% | viability, T/C [9]: 72.6% | viability, T/C [10]: 54.9% | viability, T/C [11]: 36.2% | viability, T/C [12]: 37.3% | viability, T/C [31]: 76.7% | viability, T/C [32]: 65.4% | viability, T/C [13]: 59.6% | viability, T/C [14]: 42.1% | viability, T/C [15]: 31.1% | viability, T/C [16]: 30.5% | viability, T/C [33]: 71.2% | viability, T/C [34]: 61.2% | viability, T/C [17]: 56.2% | viability, T/C [18]: 38.5% | viability, T/C [19]: 28.4% | viability, T/C [20]: 28.5% | viability, T/C [35]: 66.4% | viability, T/C [36]: 65.3% | viability, T/C [21]: 49.7% | viability, T/C [22]: 38.8% | viability, T/C [23]: 27.1% | viability, T/C [24]: 30.1%
